In US10472356B2, “Bicyclic ketone sulfonamide compounds” (AMGEN INC., priority 2015, dated 2019):

Assays:
Type in all cases: cell-based
human Nav1.7 [1] = biological target: T1, human Nav1.7 (Homo sapiens, UniProt Q15858); assay: Nav 1.7 In Vitro PatchXpress (PX) Assay; settings: HEK 293 cells stably transfected with human Nav1.7; PatchXpress whole cell voltage clamp; partially inactivated state (holding potential yielding 20 to 50% inactivation); read-out: hNav1.7 PX IC50
T1 construct: expressed in transfected cells; host or cells: HEK293
Summary of the method: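 Whole-cell voltage clamp on HEK 293 cells stably expressing human Nav1.7 (automated patch), holding potential giving 20–50% inactivation; 20 ms pulses to −10 mV at 0.1 Hz. Single compound concentration applied 3 min, peak current inhibition measured; IC50 fitted from 3–5 cells per concentration.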

human Nav1.7 [2] = biological target: T1, human Nav1.7; assay: Nav 1.7 IWQ In Vitro Assay (IonWorks Quattro); settings: HEK293 cells stably transfected with human Nav 1.7; IonWorks Quattro population patch-clamp; 26th pulse to −20 mV, 5 Hz; cells unclamped 5 to 8 minutes with compound; read-out: hNav1.7 IWQ IC50
Summary of the method: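 Population patch clamp on HEK293 cells stably expressing human Nav 1.7: held at −110 mV for three seconds, then 26 pulses of 150 msec to −20 mV at 5 Hz, before and after 5-8 min with one compound concentration. Percent inhibition from peak current at the 26th pulse.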

human Nav1.7 [3] = biological target: T1, human Nav1.7; assay: Nav 1.7 IWB In Vitro Assay (IonWorks Barracuda); settings: HEK293 cells stably transfected with human Nav 1.7; IonWorks Barracuda population patch-clamp; cells clamped to −20 mV for 4 minutes with compound; 26th pulse; read-out: hNav1.7 IWB IC50
Summary of the method: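 Population patch clamp of HEK293 cells stably expressing human Nav 1.7: 26 pulses to −20 mV (150 ms, 5 Hz) from −110 mV, then 4 min at −20 mV with compound, 3 s recovery at −110 mV and the train repeated. % inhibition of 26th-pulse peak current vs no compound; IC50 from concentration-response curves.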

T1 sequence (Q15858 whole entry): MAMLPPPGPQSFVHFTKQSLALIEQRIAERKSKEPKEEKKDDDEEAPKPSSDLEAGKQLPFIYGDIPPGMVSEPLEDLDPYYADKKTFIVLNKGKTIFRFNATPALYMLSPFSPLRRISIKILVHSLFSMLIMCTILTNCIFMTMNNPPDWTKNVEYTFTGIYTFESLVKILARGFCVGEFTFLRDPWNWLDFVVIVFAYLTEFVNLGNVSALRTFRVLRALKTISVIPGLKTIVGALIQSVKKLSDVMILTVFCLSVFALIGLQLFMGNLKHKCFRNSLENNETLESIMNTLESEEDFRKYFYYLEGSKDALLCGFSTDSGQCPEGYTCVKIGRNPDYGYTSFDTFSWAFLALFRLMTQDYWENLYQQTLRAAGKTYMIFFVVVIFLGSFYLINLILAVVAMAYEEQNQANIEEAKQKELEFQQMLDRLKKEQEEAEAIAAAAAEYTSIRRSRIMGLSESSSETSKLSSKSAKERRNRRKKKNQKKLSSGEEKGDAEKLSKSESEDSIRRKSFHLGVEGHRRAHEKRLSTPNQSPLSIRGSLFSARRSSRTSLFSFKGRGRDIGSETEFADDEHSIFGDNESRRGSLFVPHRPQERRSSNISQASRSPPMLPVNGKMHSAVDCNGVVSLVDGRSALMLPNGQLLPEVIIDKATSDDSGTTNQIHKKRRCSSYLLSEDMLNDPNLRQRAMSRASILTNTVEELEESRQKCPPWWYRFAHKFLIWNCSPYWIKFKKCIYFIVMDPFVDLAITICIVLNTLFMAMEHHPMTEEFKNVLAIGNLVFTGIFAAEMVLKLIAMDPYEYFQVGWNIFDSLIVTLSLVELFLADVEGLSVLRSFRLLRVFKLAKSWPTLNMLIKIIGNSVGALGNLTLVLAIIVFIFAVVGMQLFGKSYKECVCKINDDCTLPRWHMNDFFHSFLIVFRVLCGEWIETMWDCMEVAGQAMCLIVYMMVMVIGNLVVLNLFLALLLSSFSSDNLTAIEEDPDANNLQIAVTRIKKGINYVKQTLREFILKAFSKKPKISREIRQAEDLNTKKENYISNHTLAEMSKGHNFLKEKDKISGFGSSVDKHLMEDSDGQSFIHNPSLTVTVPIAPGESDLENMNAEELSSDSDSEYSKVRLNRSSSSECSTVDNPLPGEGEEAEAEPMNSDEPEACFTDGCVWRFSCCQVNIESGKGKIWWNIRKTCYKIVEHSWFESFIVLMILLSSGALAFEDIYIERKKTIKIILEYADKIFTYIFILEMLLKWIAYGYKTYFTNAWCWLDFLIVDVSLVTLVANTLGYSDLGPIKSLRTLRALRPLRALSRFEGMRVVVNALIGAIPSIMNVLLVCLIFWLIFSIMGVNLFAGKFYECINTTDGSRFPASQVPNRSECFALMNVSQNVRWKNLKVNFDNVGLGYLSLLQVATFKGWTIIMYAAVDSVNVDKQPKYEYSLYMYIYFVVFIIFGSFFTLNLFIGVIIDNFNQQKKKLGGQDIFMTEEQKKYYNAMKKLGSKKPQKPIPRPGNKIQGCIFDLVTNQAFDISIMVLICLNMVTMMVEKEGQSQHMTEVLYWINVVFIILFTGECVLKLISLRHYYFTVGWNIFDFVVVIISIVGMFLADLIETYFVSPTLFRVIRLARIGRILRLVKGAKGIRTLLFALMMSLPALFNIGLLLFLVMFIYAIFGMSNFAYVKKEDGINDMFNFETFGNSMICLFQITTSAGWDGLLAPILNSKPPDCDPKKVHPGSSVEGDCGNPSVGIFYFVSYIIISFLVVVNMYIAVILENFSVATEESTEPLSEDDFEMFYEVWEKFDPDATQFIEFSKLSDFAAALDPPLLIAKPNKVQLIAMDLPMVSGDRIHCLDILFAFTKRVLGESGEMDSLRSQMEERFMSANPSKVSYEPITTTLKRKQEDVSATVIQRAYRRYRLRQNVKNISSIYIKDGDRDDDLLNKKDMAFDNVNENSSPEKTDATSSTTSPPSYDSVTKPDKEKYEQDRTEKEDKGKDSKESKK

| Structure (SMILES) | IC50 (human Nav1.7 [1]) [µM] | IC50 (human Nav1.7 [2]) [µM] | IC50 (human Nav1.7 [3]) [µM] |
| --- | --- | --- | --- |
| COc1cc(-c2ccc(Cl)c(C)c2)c(F)cc1-n1c2c(ccc1=O)CN(S(=O)(=O)Nc1ncccn1)CC2 (single isomer, unassigned) [Example 30-P, P-1-(4′-chloro-2-fluoro-5-methoxy-3′-methyl-4-biphenylyl)-2-oxo-N-2-pyrimidinyl-1,5,7,8-tetrahydro-1,6-naphthyridine-6(2H)-sulfonamide] | 0.197 | 0.0133 | 0.0375 |
| COc1cc(-c2ccc(F)c(F)c2)c(F)cc1-n1c2c(ccc1=O)CN(S(=O)(=O)Nc1cccnn1)CC2 (single isomer, unassigned) [Example 32-P, P-2-oxo-N-3-pyridazinyl-1-(2,3′,4′-trifluoro-5-methoxy-4-biphenylyl)-1,5,7,8-tetrahydro-1,6-naphthyridine-6(2H)-sulfonamide] | 0.144 | 0.0184 | 0.0175 |
| COc1cc(-c2ccc(Cl)c(C)c2)c(F)cc1-n1c2c(ccc1=O)CN(S(=O)(=O)Nc1cccnn1)CC2 (single isomer, unassigned) [Example 33-P, P-1-(4′-chloro-2-fluoro-5-methoxy-3′-methyl-4-biphenylyl)-2-oxo-N-3-pyridazinyl-1,5,7,8-tetrahydro-1,6-naphthyridine-6(2H)-sulfonamide] | 0.0213 | 0.0147 | 0.0126 |
| COc1cc(C#CC2CCCC2)c(F)cc1-n1c2c(ccc1=O)CN(S(=O)(=O)Nc1ccon1)CC2 (single isomer, unassigned) [Example 34-P, P-1-(4-(cyclopentylethynyl)-5-fluoro-2-methoxyphenyl)-N-3-isoxazolyl-2-oxo-1,5,7,8-tetrahydro-1,6-naphthyridine-6(2H)-sulfonamide] | 0.192 | 0.0092 | 0.0122 |
| COc1cc(-c2cc(F)cc(Cl)c2)c(F)cc1-n1c2c(ccc1=O)CN(S(=O)(=O)Nc1cccnn1)CC2 (single isomer, unassigned) [Example 38-P, P-1-(3′-chloro-2,5′-difluoro-5-methoxy-4-biphenylyl)-2-oxo-N-3-pyridazinyl-1,5,7,8-tetrahydro-1,6-naphthyridine-6(2H)-sulfonamide] | 0.0561 | 0.0067 | 0.0109 |
| COc1cc(-c2cc(OC)c(-n3c4c(ccc3=O)CN(S(=O)(=O)Nc3ccon3)CC4)cc2F)ccc1C (single isomer, unassigned) [Example 58-P, P-1-(2-fluoro-3′,5-dimethoxy-4′-methyl-4-biphenylyl)-N-3-isoxazolyl-2-oxo-1,5,7,8-tetrahydro-1,6-naphthyridine-6(2H)-sulfonamide] | 0.107 | 0.0194 | 0.0092 |
| COc1cc(-c2cccc(C(F)(F)F)c2)c(Cl)cc1-n1c2c(ccc1=O)CN(S(=O)(=O)Nc1cccnn1)CC2 (single isomer, unassigned) [Example 91-P, P-1-(2-chloro-5-methoxy-3′-(trifluoromethyl)-[1,1′-biphenyl]-4-yl)-2-oxo-N-(pyridazin-3-yl)-1,2,7,8-tetrahydro-1,6-naphthyridine-6(5H)-sulfonamide] | 0.0169 | 0.0034 | 0.0035 |
| COc1cc(-c2cc(F)cc(F)c2)c(F)cc1-n1c2c(ccc1=O)CN(S(=O)(=O)Nc1ccon1)[C@H](C)C2 [Example 3-D-P, P-(7R)-N-3-isoxazolyl-7-methyl-2-oxo-1-(2,3′,5′-trifluoro-5-methoxy-4-biphenylyl)-1,5,7,8-tetrahydro-1,6-naphthyridine-6(2H)-sulfonamide] | 0.23 | 0.0405 | 0.04 |
| COc1cc(-c2cccc(OC(F)(F)F)c2)c(F)cc1-n1c2c(ccc1=O)CN(S(=O)(=O)Nc1cccnn1)CC2 [Example 66, P-1-(2-fluoro-5-methoxy-3′-(trifluoromethoxy)-[1,1′-biphenyl]-4-yl)-2-oxo-N-(pyridazin-3-yl)-1,2,7,8-tetrahydro-1,6-naphthyridine-6(5H)-sulfonamide] | 0.0371 | 0.0023 | 0.0038 |
| COc1cc(-c2cccc(OCC(F)(F)F)c2)c(F)cc1-n1c2c(ccc1=O)CN(S(=O)(=O)Nc1cccnn1)CC2 [Example 68, P-1-(2-fluoro-5-methoxy-3′-(2,2,2-trifluoroethoxy)-[1,1′-biphenyl]-4-yl)-2-oxo-N-(pyridazin-3-yl)-1,2,7,8-tetrahydro-1,6-naphthyridine-6(5H)-sulfonamide] | 0.0742 | 0.0024 | 0.0053 |
| COc1cc(-c2ccc(F)c(C(F)(F)F)c2)c(F)cc1-n1c2c(ccc1=O)CN(S(=O)(=O)Nc1cccnn1)CC2 [Example 71, P-1-(2,4′-difluoro-5-methoxy-3′-(trifluoromethyl)-[1,1′-biphenyl]-4-yl)-2-oxo-N-(pyridazin-3-yl)-1,2,7,8-tetrahydro-1,6-naphthyridine-6(5H)-sulfonamide] | 0.0294 | 0.0028 | 0.0069 |
| COc1cc(-c2cc(Cl)cc(OC(F)(F)F)c2)c(F)cc1-n1c2c(ccc1=O)CN(S(=O)(=O)Nc1cccnn1)CC2 [Example 77, P-1-(3′-chloro-2-fluoro-5-methoxy-5′-(trifluoromethoxy)-[1,1′-biphenyl]-4-yl)-2-oxo-N-(pyridazin-3-yl)-1,2,7,8-tetrahydro-1,6-naphthyridine-6(5H)-sulfonamide] | 0.0405 | 0.0013 | 0.0044 |
| COc1cc(Cl)cc(-c2cc(OC)c(-n3c4c(ccc3=O)CN(S(=O)(=O)Nc3ccon3)CC4)cc2F)c1 [Example 89, P-1-(3′-chloro-2-fluoro-5,5′-dimethoxy-[1,1′-biphenyl]-4-yl)-N-(isoxazol-3-yl)-2-oxo-1,2,7,8-tetrahydro-1,6-naphthyridine-6(5H)-sulfonamide] | 0.0199 | 0.0013 | 0.0088 |
| COc1cc(OC)cc(-c2cc(OC)c(-n3c4c(ccc3=O)CN(S(=O)(=O)Nc3ccon3)CC4)cc2F)c1 [Example 90, P-1-(2-fluoro-3′,5,5′-trimethoxy-[1,1′-biphenyl]-4-yl)-N-(isoxazol-3-yl)-2-oxo-1,2,7,8-tetrahydro-1,6-naphthyridine-6(5H)-sulfonamide] | 0.164 | 0.0032 | 0.0365 |
